# Assay results published in patent EP0229718A2, “Labelling blood cells” (AMERSHAM INTERNATIONAL plc, priority 1986, dated 1987).
# How the values were obtained:
# inflammatory disease = test: Imaging of inflammatory disease in patients with labelled leucocytes (Example 6); assay type: in vivo
# Method: (§1) Hexamethylpropylene-amineoxime (HMPAO) forms a lipid-soluble neutral complex with ^99mTc which is rapidly incorporated into leucocytes in vitro. In six patients with suspected or known inflammatory disease, a "mixed" leucocyte suspension isolated from 85 ml blood anticoagulated with acid-citrate-dextrose was labelled by ^99mTc-HMPAO with a mean efficiency of 47%, of which 78% was taken up by granulocytes. […] Four patients also received ¹¹¹In-labelled "pure" granulocytes.
# (§2) This experiment is described in more detail in The Lancet, October 25 1986, pages 946-949.
# [1] = system: "mixed" leucocyte suspension; test: In vitro labelling of a mixed leucocyte suspension from patients (Example 6); assay type: cell-based
# Method: as §1, §2
structure (smiles),measurement,setting,value
C/C(=N\[O-])[C@@H](C)[N-]CC(C)(C)C[N-][C@H](C)/C(C)=N/O.[O]=[99Tc+3] (racemic) [^99mTc-HMPAO],granulocyte recovery in blood,"inflammatory disease; at 30-40 min, mean",32%
same,"image detail compared with ¹¹¹In-labelled ""pure"" granulocytes",inflammatory disease; four patients also received ¹¹¹In-labelled granulocytes,comparable or superior to the ¹¹¹In images
same,detection of inflammatory disease by imaging,"inflammatory disease; six patients, from 30 min (five patients) or 3 h (sixth), remained positive at 20-24 h",All six patients were positive for inflammatory disease
same,retention of label in granulocytes in vitro,[1]; elution compared with other cell types,remained firmly labelled
same,share of the label taken up by granulocytes,[1]; of the cell-bound label,78%
same,mean labelling efficiency,"[1]; six patients, leucocytes from 85 ml blood anticoagulated with acid-citrate-dextrose",47%
